In PubChem BioAssay (NCI):
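Step 1: Grow cells in 96-well plates. Step 2: Expose to compound for 48 hours at 5 concentrations. Step 3: Interpolate endpoints linearly; if unreached, use highest concentration. The concentration for 50% growth inhibition is given as GI50. TGI marks complete inhibition of growth.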

Tests used:
Test in all cases: NCI tumour cell line growth inhibition, 48 h
TK-10 renal = system: TK-10 renal
NCI-H23 lung = system: NCI-H23 lung
HT29 colon = system: HT29 colon
MOLT-4 leukemia = system: MOLT-4 leukemia
HS 578T breast = system: HS 578T breast
NCI-H226 lung = system: NCI-H226 lung
LOX IMVI melanoma = system: LOX IMVI melanoma
SR leukemia = system: SR leukemia
IGROV1 ovarian = system: IGROV1 ovarian
UO-31 renal = system: UO-31 renal

| Structure (SMILES) | GI50 (TK-10 renal) [µM] | TGI (TK-10 renal) [µM] | GI50 (NCI-H23 lung) [µM] | TGI (NCI-H23 lung) [µM] | GI50 (HT29 colon) [µM] | TGI (HT29 colon) [µM] | GI50 (MOLT-4 leukemia) [µM] | TGI (MOLT-4 leukemia) [µM] | GI50 (HS 578T breast) [µM] | TGI (HS 578T breast) [µM] | GI50 (NCI-H226 lung) [µM] | GI50 (LOX IMVI melanoma) [µM] | TGI (LOX IMVI melanoma) [µM] | GI50 (SR leukemia) [µM] | TGI (SR leukemia) [µM] | GI50 (IGROV1 ovarian) [µM] | TGI (IGROV1 ovarian) [µM] | GI50 (UO-31 renal) [µM] | TGI (UO-31 renal) [µM] | TGI (NCI-H226 lung) [µM] |
| --- | --- | --- | --- | --- | --- | --- | --- | --- | --- | --- | --- | --- | --- | --- | --- | --- | --- | --- | --- | --- |
| Cc1ccc(Cc2cnc(NC(=O)/C=C/c3cccc(C)c3)s2)cc1 | 0.919 | 6.81 | 0.322 | > 50.1 | 0.135 | 5.85 | 0.261 | > 100 | 0.212 | 5.86 | 0.608 | 0.124 | 7.4 | 0.0449 | 2.23 | 0.334 | 15.5 | 0.395 | 9.54 |  |
| CS(=O)(=O)CCNCc1ccc(-c2ccc3ncnc(Nc4ccc(OCc5ccccc5)c(Br)c4)c3c2)o1 | 2.02 | > 22 | 10.5 | > 25 | 4.72 | 10.1 | 9.2 | > 25 | 5.08 | 15.9 | 10.1 | 4.36 | 8.69 | 8.49 | > 23.3 | 4.94 | > 25 | 3.64 | 11.5 | > 25 |
| Cc1nc2sc(C(=O)Nc3cccc4ccccc34)c(N)c2cc1C(O)c1ccccc1 (stereo unspecified) | 1.57 | > 91.5 | 0.104 | 15.3 | 0.038 | 14.1 | 0.0796 | > 65.7 | 0.0306 | 0.693 | 1.19 | 0.0568 | 6.67 | 0.04 | > 43 | 0.0651 | 12.4 | 0.283 | 14.2 | 28.4 |
| Cc1ccc2c(-c3ccnc(Nc4ccccc4)n3)c(-c3ccc(F)cc3)nn2n1 | 1.62 | 10.8 | 8.25 | > 25 | 2.34 | > 19.2 | 13.4 | > 25 | 8.51 | > 25 | 8.23 | 5.92 | > 25 | 11.7 | > 25 | 1.13 | 16.5 | 1.01 | > 24.1 | 24.2 |
| C[C@]12CC[C@@H]3c4cc(-c5ccc(F)cc5)c(O)cc4CC[C@H]3[C@@H]1CC[C@@H]2O |  | 21.7 | 13.8 | 37.8 | 6.54 | 20.2 | 4.88 | 18.3 | 4.84 | 22.4 | 10.3 | 9.88 | 22.1 | 4.75 | 24.5 | 6 | 20.4 | 7.01 | 21.6 | 30.4 |
| COc1cc(-c2ccc(-c3ccc(C(=N)N)nc3)s2)cc(OC)c1OC | 3.19 | 9.35 | 6.4 | 22.6 | 1.37 | 5.68 | 2.53 | 6.9 | 2.59 | 8.52 | 10.8 | 1.87 | 3.48 | 2.48 |  | 2.63 | 6.2 | 1.88 | 3.4 | 31.1 |
| N#Cc1ccc2c(c1)C(=O)c1c-2n(CCCCl)c(=O)c2cc([N+](=O)[O-])ccc12 | 42.9 | > 100 | 4.81 | 17.6 | 7.93 | > 100 | 1.34 | 5.26 | 41 | > 100 | 9.1 | 2.28 | 14.8 | 0.178 | 1.7 | 3.95 | 53.3 | 2.61 | > 100 | 89.9 |
| CNC(=O)c1ccc(N2C(=S)N(c3ccc(C#N)c(C(F)(F)F)c3)C(=O)C2(C)C)cc1F | > 54.8 | > 100 | 30.2 | > 89.6 | 43.3 | > 100 | 33.1 | > 100 | > 43.1 | > 86.8 | 39.7 | 36.5 | > 62.2 | 17.9 | > 100 | 40.3 | > 100 | 8.83 | 34.9 | > 71.9 |
| COc1ccc(-c2cc(-c3ccc(Cl)cc3)nc(SCCCC(=O)NO)n2)cc1 | 0.499 | 5.78 | 1.43 | 7.06 | 1.41 | 3.77 | 0.796 | > 22 | 2.08 | 11.2 | 1.49 | 0.153 | 1.32 | 0.358 |  | 1.09 | 3.56 | 0.237 | 1 | 6.89 |
